Measured values published in the supplement of paper PMC10307832.

How the values were obtained:
Test in all cases: relative viability (nuclei count vs DMSO), 5 days (fraction); higher = more cells survive
AT-7519 + Alpelisib = compound: O=C(NC1CCNCC1)c1n[nH]cc1NC(=O)c1c(Cl)cccc1Cl [AT-7519] + Cc1nc(NC(=O)N2CCC[C@H]2C(N)=O)sc1-c1ccnc(C(C)(C)C(F)(F)F)c1 [Alpelisib] (partner 2 µM)
How it was run: (§1)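 Cells from lung cancer lines were seeded into 1536-well plates and, one day later, dosed by pin tool. Treatments were either a single drug or a fixed dose of an anchor drug with five library-drug doses (not always all listed) in √10 steps. After 5 days, nuclei were stained in a one-step fixation (final 0.05% Triton X-100, 1% formaldehyde, 1 ug/ml Hoechst) and counted on 4× images, and relative viability is the treated-to-vehicle nuclei ratio, as the median of duplicate plates.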

[1] = compound: C1=CC2=C(C=C(C(=C2N=C1)O)N=NC3=CC4=C(C=C3)C=C(C=C4)S(=O)(=O)O)S(=O)(=O)O + N=C(N)NC(=N)NCCc1ccccc1 [Phenformin] (partner 250 µM)
How it was run: as §1

[2] = compound: C1=CC2=C(C=C(C(=C2N=C1)O)N=NC3=CC4=C(C=C3)C=C(C=C4)S(=O)(=O)O)S(=O)(=O)O + CC1(C)CCC(c2ccc(Cl)cc2)=C(CN2CCN(c3ccc(C(=O)NS(=O)(=O)c4ccc(N[C@H](CCN5CCOCC5)CSc5ccccc5)c(S(=O)(=O)C(F)(F)F)c4)cc3)CC2)C1 [Navitoclax] (partner 0.5 µM)
How it was run: as §1

AT-7519 + Luminespib = compound: O=C(NC1CCNCC1)c1n[nH]cc1NC(=O)c1c(Cl)cccc1Cl [AT-7519] + CCNC(=O)c1noc(-c2cc(C(C)C)c(O)cc2O)c1-c1ccc(CN2CCOCC2)cc1 [Luminespib] (partner 0.01 µM)
How it was run: as §1

Cell Line | relative viability (AT-7519 + Alpelisib; first compound 0.01 µM) | relative viability (AT-7519 + Alpelisib; first compound 0.03162 µM) | relative viability (AT-7519 + Alpelisib; first compound 0.3162 µM) | relative viability (AT-7519 + Alpelisib; first compound 1 µM) | relative viability ([1]; first compound 0.08 µM) | relative viability ([1]; first compound 0.253 µM) | relative viability ([1]; first compound 0.8 µM) | relative viability ([1]; first compound 2.53 µM) | relative viability ([1]; first compound 8 µM) | relative viability ([2]; first compound 0.08 µM) | relative viability ([2]; first compound 0.253 µM) | relative viability ([2]; first compound 0.8 µM) | relative viability ([2]; first compound 2.53 µM) | relative viability ([2]; first compound 8 µM) | relative viability (AT-7519 + Luminespib; first compound 0.01 µM) | relative viability (AT-7519 + Luminespib; first compound 0.03162 µM) | relative viability (AT-7519 + Luminespib; first compound 0.3162 µM) | relative viability (AT-7519 + Luminespib; first compound 1 µM)
HCC-366 | 0.362 | 0.347 | 0.514 | 0.228 | 0.646 | 0.618 | 0.585 | 0.631 | 0.589 | 1.07 | 0.839 | 0.977 | 1.07 | 1.07 | – | – | – | –
HCC-827 | 1.03 | 0.999 | 1.02 | 0.708 | 0.405 | 0.335 | 0.397 | 0.416 | 0.45 | 1 | 0.977 | 0.995 | 1.03 | 1 | 0.603 | 0.61 | 0.566 | 0.334
HOP-62 | 1.19 | 0.965 | 0.936 | 0.668 | 0.836 | 0.584 | 0.618 | 0.645 | 0.53 | 1.1 | 1.03 | 1.12 | 1.07 | 1.1 | 1.02 | 0.916 | 0.993 | 0.859
IA-LM | 0.904 | 0.617 | 0.779 | 0.488 | – | – | – | – | – | 0.769 | 0.885 | 0.819 | 0.75 | 0.694 | – | – | – | –
LC-2-ad | 0.914 | 0.843 | 0.904 | 0.472 | 0.575 | 0.553 | 0.548 | 0.588 | 0.651 | 0.516 | 0.517 | 0.507 | 0.402 | 0.521 | 1.03 | 0.892 | 1.17 | 0.501
LCLC-97TM1 | 0.29 | 0.195 | 0.254 | 0.162 | 0.403 | 0.491 | 0.434 | 0.45 | 0.384 | – | 0.224 | – | 0.509 | 0.41 | 0.976 | 0.692 | 0.788 | 0.285
LCLC-103H | 0.956 | 0.908 | 0.976 | 0.952 | 0.33 | 0.356 | 0.298 | 0.358 | 0.369 | – | – | – | – | – | 1.06 | 0.953 | 0.955 | 0.867
LK-2 | 0.697 | 1.12 | 0.827 | 0.514 | 0.639 | 0.36 | 0.303 | 0.381 | 0.332 | 1.01 | 0.797 | 0.888 | 0.79 | 0.687 | 0.188 | 0.159 | – | 0.189
LOU-NH91 | 0.768 | 0.703 | 0.729 | 0.579 | 0.644 | 0.74 | 0.706 | 0.712 | 0.607 | 0.72 | 0.672 | 0.704 | 0.723 | 0.687 | 0.356 | 0.312 | 0.351 | 0.281
LU99A | 0.612 | 0.435 | 0.478 | 0.42 | 0.989 | 0.796 | 0.869 | 0.721 | 0.631 | 0.815 | 0.913 | 0.8 | 0.813 | 0.742 | 0.274 | 0.221 | 0.223 | 0.193
LXF-289 | 1.03 | 1.07 | 1.08 | 0.921 | 0.54 | 0.511 | 0.509 | 0.485 | 0.507 | 1 | 0.928 | 0.894 | 0.998 | 0.919 | 0.557 | 0.724 | 0.697 | 0.5
NCI-H23 | 0.561 | 0.785 | 0.68 | 0.45 | 0.869 | 0.805 | 0.694 | 0.786 | 0.83 | 1.09 | 0.742 | 0.936 | 0.89 | 1.01 | 0.224 | 0.236 | 0.183 | 0.146
NCI-H358 | 0.948 | 0.712 | 0.431 | 0.179 | 0.35 | 0.35 | 0.339 | 0.345 | 0.327 | – | – | – | – | – | 0.326 | 0.267 | 0.24 | 0.224
NCI-H522 | – | – | – | – | 0.658 | 0.64 | 0.71 | 0.603 | 0.612 | – | – | – | – | – | 1.01 | 1.07 | 1.31 | 0.959
NCI-H650 | 1.09 | 1 | 1.09 | 1.08 | 0.413 | 0.42 | 0.437 | 0.49 | 0.309 | – | – | – | – | – | 0.75 | 0.7 | 0.838 | 0.611
NCI-H661 | 0.488 | 0.445 | 0.758 | 0.506 | 0.286 | 0.291 | 0.269 | 0.279 | 0.312 | – | – | – | – | – | 1.01 | 0.92 | 0.975 | 0.219
NCI-H1299 | 1.1 | 1.08 | 1.17 | 1.15 | – | – | – | – | – | 1.09 | 1.05 | 0.976 | 1.08 | 1.06 | – | – | – | –
NCI-H1563 | 0.868 | 0.942 | 0.942 | 0.781 | 0.63 | 0.677 | 0.684 | 0.626 | 0.629 | – | – | – | – | – | 0.526 | 0.542 | 0.599 | 0.538
NCI-H1623 | – | – | – | – | 0.565 | 0.541 | 0.609 | 0.589 | 0.278 | – | – | – | – | – | 0.534 | 0.449 | 0.397 | 0.307
NCI-H1650 | – | – | – | – | 0.427 | 0.444 | 0.42 | 0.418 | 0.322 | 1.36 | 1.27 | 1.28 | 1.2 | 1.12 | 0.186 | 0.202 | 0.205 | 0.21
NCI-H1703 | 0.282 | 0.297 | 0.299 | 0.156 | – | – | – | – | – | 1.02 | 1.16 | 1.12 | 1.27 | 1.13 | – | – | – | –
NCI-H2342 | – | – | – | – | 0.629 | 0.582 | 0.537 | 0.621 | 0.528 | – | – | – | – | – | 0.646 | 0.759 | 0.613 | 0.587
SW 900 | – | – | – | – | 0.576 | 0.669 | 0.517 | 0.552 | 0.275 | – | – | – | – | – | 0.171 | 0.183 | 0.173 | 0.179
